This is an account of results in patent US20160318933A1, “FUSED PYRAZOLE DERIVATIVE” (SUMITOMO DAINIPPON PHARMA CO., LTD., priority 2013, published 2016).

The structures appear in SMILES notation.

This experiment has as its target T1, human brain-derived dopamine D4 receptor (Homo sapiens, UniProt P21917).
T1 construct: expressed in transfected cells; host or cells: CHO (CHO-K1) or HEK293 cells
T1 sequence (P21917 1-419): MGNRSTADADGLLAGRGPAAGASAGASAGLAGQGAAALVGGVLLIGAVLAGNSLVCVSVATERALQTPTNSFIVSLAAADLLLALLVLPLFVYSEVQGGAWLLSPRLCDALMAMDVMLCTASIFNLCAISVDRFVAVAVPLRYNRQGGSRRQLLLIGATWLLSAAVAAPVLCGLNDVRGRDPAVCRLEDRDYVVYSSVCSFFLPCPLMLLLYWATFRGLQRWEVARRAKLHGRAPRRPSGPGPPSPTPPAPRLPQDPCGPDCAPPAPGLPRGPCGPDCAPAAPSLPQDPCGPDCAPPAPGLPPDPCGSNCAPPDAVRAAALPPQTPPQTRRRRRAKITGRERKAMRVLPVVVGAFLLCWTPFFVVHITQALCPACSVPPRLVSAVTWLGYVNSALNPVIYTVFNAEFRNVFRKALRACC
Kind of experiment: Agonistic activity in G protein dependent pathway of dopamine D4 receptor (aequorin intracellular calcium luminescence, FDSS). The format is cell-based. The following applies: for EC50: concentration required to achieve a 50% response of Emax, CHO-K1 or HEK293 cells transfected with D4 receptor; for Emax: read-out: Maximal activity on D4 receptor (%). The source says:
The G protein dependent pathway is a pathway for transmitting signals in cells via a second messenger by stimulating a G protein through the binding of guanosine triphosphate (GTP) to the G protein. When GPCRs are activated by the binding of a ligand, a G protein binds to the GPCRs, and thereby GTP binds to a Gα subunit that is one of G protein subunits and a Gγβ subunit is dissociated. The activated Gα subunit regulates intracellular cAMP levels by the activation or inhibition of an adenylate cyclase, and regulates intracellular calcium levels by the activation of phospholipase C to transmit signals in cells.
The agonistic activities of the present compounds in the G protein dependent pathway were evaluated on the basis of intracellular calcium levels as follows. CHO-K1 or HEK293 cell lines transfected with D4 receptor genes were seeded in a 384-well plate, and incubated in a CO2 incubator at 37° C. for 24 hours, and then a solution of the present compound in DMSO was added into cells preloaded with coelenterazine to measure the change in luminescent signals with a FDSS (Hamamatsu Photonics K.K.). […] The agonistic activity of the present compound was calculated according to the measured luminescent signals, as the maximal activity (Emax) of the present compound. EC50 value was calculated as the concentration of the present compound required to achieve a 50% response of Emax.
For orientation: Calcium assays in cells follow changes in intracellular calcium, usually with a dye or a luminescent sensor.

The term EC50 denotes the concentration at which the effect is half-maximal. Take `c1ccc(CN2CCn3nc(-c4ccccn4)cc3C2)cc1` [Example 1, 5-Benzyl-2-(pyridin-2-yl)-4,5,6,7-tetrahydropyrazolo[1,5-a]pyrazine]: the EC50 is 20 nM and the Emax was determined as 71%.
Turning to `Fc1ccc(CN2CCn3nc(-c4ccccn4)cc3C2)cc1` [Example 2], the EC50 came to 28 nM and the Emax amounted to 83%.
On the same counts, the results for `c1ccc(-c2cc3n(n2)CCN(Cc2n[nH]c4ccccc24)C3)nc1` [Example 3] are 19 nM and 60%.
On the same counts, the results for `Fc1ccc2[nH]nc(CN3CCn4nc(-c5ccccn5)cc4C3)c2c1` [Example 4] are 17 nM and 60%.
On the same counts, the results for `c1ccc(CN2CCCn3nc(-c4ccccn4)cc3C2)cc1` [Example 8] are 105 nM and 37%.
In the case of `Fc1ccc(CN2CCCn3nc(-c4ccccn4)cc3C2)cc1` [Example 9], the EC50 came out at 89 nM and the Emax was found to be 34%.
Regarding `c1ccc(-c2cc3n(n2)CCN(Cc2ccc4[nH]ncc4c2)C3)nc1` [Example 13], the EC50 worked out at 116 nM and the Emax came out at 65%.
`c1ccc(-c2cc3n(n2)CCN(Cc2cccc4[nH]cnc24)C3)nc1` [Example 14]: the EC50 was found to be 84 nM and the Emax was determined as 46%.
Take `c1ccc(-c2cc3n(n2)CCN(Cc2ccc4cn[nH]c4c2)C3)nc1` [Example 15]: the EC50 stood at 9.2 nM and the Emax came out at 62%.
The corresponding values for `COc1ccccc1-c1cc2n(n1)CCN(Cc1ccc(C)nc1N)C2` [Example 16] are 138 nM and 51%.
The corresponding values for `COc1ccccc1-c1cc2n(n1)CCN(Cc1cn3ccccc3n1)C2` [Example 17] are 25 nM and 52%.
For `COc1ccccc1-c1cc2n(n1)CCN(Cc1ccc(F)c(C#N)c1)C2` [Example 18], the EC50 came out at 60 nM and the Emax was 83%.
Regarding `Cc1ccc(CN2CCn3nc(-c4ccccn4)cc3C2)c(N)n1` [Example 19], the EC50 amounted to 54 nM and the Emax was 63%.
On the same counts, the results for `O=C1CCc2ccc(CN3CCn4nc(-c5ccccn5)cc4C3)cc2N1` [Example 20] are 51 nM and 42%.
The corresponding values for `Nc1nc(C(F)(F)F)ccc1CN1CCn2nc(-c3ccccn3)cc2C1` [Example 21] are 47 nM and 59%.
On the same counts, the results for `CN1Cc2ccc(CN3CCn4nc(-c5ccccn5)cc4C3)cc2C1` [Example 23, 5-[(2-Methyl-2,3-dihydro-1H-isoindol-5-yl)methyl]-2-(pyridin-2-yl)-4,5,6,7-tetrahydropyrazolo[1,5-a]pyrazine] are 25 nM and 71%.
Regarding `COc1ccccc1-c1cc2n(n1)CCN(Cc1ccc(F)cc1F)C2` [Example 25, 5-(2,4-Difluorobenzyl)-2-(2-methoxyphenyl)-4,5,6,7-tetrahydropyrazolo[1,5-a]pyrazine], the EC50 was 100 nM and the Emax is 57%.
The corresponding values for `Cc1ccccc1CN1CCn2nc(-c3ccccn3)cc2C1` [Example 26] are 61 nM and 49%.
On the same counts, the results for `Cc1cccc(CN2CCn3nc(-c4ccccn4)cc3C2)c1` [Example 27] are 0.5 nM and 62%.
On the same counts, the results for `N#Cc1ccc(CN2CCn3nc(-c4ccccn4)cc3C2)cc1` [Example 29] are 38 nM and 48%.
For `Cc1ncc(CN2CCn3nc(-c4ncccc4C)cc3C2)c(N)n1` [Example 30, 2-Methyl-5-{[2-(3-methylpyridin-2-yl)-6,7-dihydropyrazolo[1,5-a]pyrazin-5(4H)-yl]methyl}pyrimidine-4-amine], the EC50 amounted to 79 nM and the Emax turned out to be 53%.
The corresponding values for `Cc1c(-c2ccccn2)nn2c1CN(Cc1ccccc1)CCC2` [Example 32, 5-Benzyl-3-methyl-2-(pyridin-2-yl)-5,6,7,8-tetrahydro-4H-pyrazolo[1,5-a][1,4]diazepine] are 19 nM and 52%.
The corresponding values for `Fc1c(-c2ccccn2)nn2c1CN(Cc1ccccc1)CCC2` [Example 33, 5-Benzyl-3-fluoro-2-(pyridin-2-yl)-5,6,7,8-tetrahydro-4H-pyrazolo[1,5-a][1,4]diazepine] are 63 nM and 41%.
On the same counts, the results for `Cc1cccnc1-c1cc2n(n1)CCN(Cc1ccc3cn[nH]c3c1)C2` [Example 34] are 5.3 nM and 73%.
As to `Cc1cccnc1-c1cc2n(n1)CCN(Cc1n[nH]c3ccccc13)C2` [Example 35], the EC50 stood at 4.3 nM and the Emax came out at 87%.
On to `N#Cc1cc(CN2CCn3nc(-c4ccccn4)cc3C2)ccc1F` [Example 36], for which the EC50 stood at 40 nM and the Emax was found to be 77%.
`Cc1n[nH]c2ccc(CN3CCn4nc(-c5ccccn5)cc4C3)cc12` [Example 37]: the EC50 was found to be 62 nM and the Emax worked out at 54%.
On the same counts, the results for `c1ccc(-c2cc3n(n2)CCN(Cc2ccc4occc4c2)C3)nc1` [Example 39] are 35 nM and 69%.
On the same counts, the results for `Cc1cccnc1-c1cc2n(n1)CCN(Cc1n[nH]c3c(F)cccc13)C2` [Example 40] are 11 nM and 70%.
For the compound `Cc1cccnc1-c1cc2n(n1)CCN(Cc1ccc3c(c1)NC(=O)CC3)C2` [Example 41], the EC50 was found to be 46 nM and the Emax came out at 54%.
With `Cc1nc2c(CN3CCn4nc(-c5ccccn5)cc4C3)cccc2[nH]1` [Example 42], the EC50 turned out to be 100 nM and the Emax stood at 50%.
The corresponding values for `Cc1ccc(CN2CCn3nc(-c4ncccc4C)cc3C2)c(N)n1` [Example 43] are 15 nM and 77%.
On the same counts, the results for `Cc1cccnc1-c1cc2n(n1)CCN(Cc1n[nH]c3ccc(F)cc13)C2` [Example 44] are 26 nM and 98%.
On the same counts, the results for `Cc1cccnc1-c1cc2n(n1)CCN(Cc1n[nH]c3cccc(C)c13)C2` [Example 45] are 157 nM and 54%.
For the compound `Cc1ncc(CN2CCn3nc(-c4ncccc4F)cc3C2)c(N)n1` [Example 46], the half-maximal effective concentration (EC50) came out at 45 nM and the Emax stood at 59%.
The corresponding values for `Cc1cccnc1-c1cc2n(n1)CCN(Cc1ccc(C(F)(F)F)cc1F)C2` [Example 47] are 71 nM and 65%.
On the same counts, the results for `Cc1cccnc1-c1cc2n(n1)CCN(Cc1ccc(C(F)(F)F)c(F)c1)C2` [Example 48] are 96 nM and 50%.
For the compound `Cc1cccnc1-c1cc2n(n1)CCN(Cc1ccc(CF)cc1)C2` [Example 49], the EC50 was found to be 19 nM and the Emax was 84%.
On the same counts, the results for `Cc1ccc(CN2CCn3nc(-c4ncccc4F)cc3C2)cn1` [Example 50] are 61 nM and 41%.
The corresponding values for `O=C1NCc2cc(CN3CCn4nc(-c5ccccn5)cc4C3)ccc21` [Example 51] are 70 nM and 32%.
On the same counts, the results for `Cc1cccnc1-c1cc2n(n1)CCN(Cc1ccc(OC(F)(F)F)cc1C#N)C2` [Example 52] are 34 nM and 58%.
In the case of `Cc1ccc(CN2CCn3nc(-c4ncccc4C)cc3C2)cc1` [Example 53], the EC50 came out at 10 nM and the Emax is 99%.
On the same counts, the results for `Cc1cccc(CN2CCn3nc(-c4ncccc4C)cc3C2)c1` [Example 54] are 7 nM and 80%.
The corresponding values for `Cc1cccnc1-c1cc2n(n1)CCN(Cc1ccc(C(F)(F)F)cc1)C2` [Example 55] are 67 nM and 92%.
For `Cc1cccnc1-c1cc2n(n1)CCN(Cc1ccc(Cl)cc1)C2` [Example 56], the EC50 stood at 12 nM and the Emax was 78%.
Regarding `Cc1cccnc1-c1cc2n(n1)CCN(Cc1ccc(C#N)cc1)C2` [Example 57], the EC50 is 83 nM and the Emax came out at 77%.
On the same counts, the results for `Cc1cccnc1-c1cc2n(n1)CCN(Cc1ccc(F)cc1)C2` [Example 58] are 22 nM and 81%.
On the same counts, the results for `Cc1cccnc1-c1cc2n(n1)CCN(Cc1cccc(Cl)c1)C2` [Example 59] are 36 nM and 58%.
The corresponding values for `Cc1cccnc1-c1cc2n(n1)CCN(Cc1cccc(C(F)(F)F)c1)C2` [Example 60] are 99 nM and 59%.
